5 compounds from US20260015350A1, “AZAQUINAZOLINE PAN-KRAS INHIBITORS” (Mirati Therapeutics, Inc., priority 2022, published 2026) can be followed below.

One assay deals with T1, KRas^G12V (Homo sapiens, UniProt P01116, G12V).
T1 construct: Biotinylated KRas (corresponding to amino acids 1-169, produced at Accelegan Inc.); biotin (biotinylated); purchased Accelegan Inc
The assay is described as follows: KRas binding assay (TR-FRET tracer displacement), KRas G12V. (In general: In TR-FRET formats the signal depends on donor and acceptor labels being close together.)

In assay [1] the test system is KRas-mediated phosphorylation of ERK in H727 cells. The assay is described as follows: Inhibition of KRas-mediated phosphorylation of ERK (Cisbio HTRF pERK), H727 cells. Format: cell-based. As to conditions: Homo sapiens, NCI-H727, H727 cells; HTRF pERK. Put shortly: (§1)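 Compound treatment lasts 3 hrs on 6,000 seeded cells, testing 10 doses from a 10 uM top concentration in 3-fold decrements at 0.8% final DMSO. Trametinib at 0.2 uM defines the Min signal. Detection is HTRF on cold-lysed cell extracts.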

The next assay has as its target T2, KRas^G13D (Homo sapiens, UniProt P01116, G13D).
T2 construct: Biotinylated KRas (corresponding to amino acids 1-169, produced at Accelegan Inc.); biotin (biotinylated); purchased Accelegan Inc
The assay is described as follows: KRas binding assay (TR-FRET tracer displacement), KRas G13D. As to conditions: TR-FRET tracer displacement, KRas G13D.

A further assay has as its target T3, KRas^Q61H (Homo sapiens, UniProt P01116, Q61H).
T3 construct: Biotinylated KRas (corresponding to amino acids 1-169, produced at Accelegan Inc.); biotin (biotinylated); purchased Accelegan Inc
Put plainly: KRas binding assay (TR-FRET tracer displacement), KRas Q61H. As to conditions: TR-FRET tracer displacement, KRas Q61H.

The target in a further assay is T4, KRas^G12S (Homo sapiens, UniProt P01116, G12S).
T4 construct: Biotinylated KRas (corresponding to amino acids 1-169, produced at Accelegan Inc.); biotin (biotinylated); purchased Accelegan Inc
Put plainly: KRas binding assay (TR-FRET tracer displacement), KRas G12S. Particulars: TR-FRET tracer displacement, KRas G12S.

The next assay addresses T5, KRas^WT (Homo sapiens, UniProt P01116).
T5 construct: Biotinylated KRas (corresponding to amino acids 1-169, produced at Accelegan Inc.); biotin (biotinylated); purchased Accelegan Inc
Put plainly: KRas binding assay (TR-FRET tracer displacement), KRas WT. As to conditions: TR-FRET tracer displacement, KRas WT.

For a further assay, the target named is T6, KRas^G12C (Homo sapiens, UniProt P01116, G12C).
T6 construct: Biotinylated KRas (corresponding to amino acids 1-169, produced at Accelegan Inc.); biotin (biotinylated); purchased Accelegan Inc
The assay is described as follows: KRas binding assay (TR-FRET tracer displacement), KRas G12C. Particulars: TR-FRET tracer displacement, KRas G12C.

A further assay addresses T7, KRas^G12R (Homo sapiens, UniProt P01116, G12R).
T7 construct: Biotinylated KRas (corresponding to amino acids 1-169, produced at Accelegan Inc.); biotin (biotinylated); purchased Accelegan Inc
Put plainly: KRas binding assay (TR-FRET tracer displacement), KRas G12R.

In another assay the target is T8, KRas^G12A (Homo sapiens, UniProt P01116, G12A).
T8 construct: Biotinylated KRas (corresponding to amino acids 1-169, produced at Accelegan Inc.); biotin (biotinylated); purchased Accelegan Inc
Put plainly: KRas binding assay (TR-FRET tracer displacement), KRas G12A. As to conditions: TR-FRET tracer displacement, KRas G12A.

Assay [2] has as its system KRas-mediated phosphorylation of ERK in AsPC-1 cells. The assay is described as follows: Inhibition of KRas-mediated phosphorylation of ERK (Cisbio HTRF pERK), AsPC-1 cells. Format: cell-based. Particulars: Homo sapiens, ASPC1, AsPC-1 cells; HTRF pERK. The procedure, abridged:
as §1

For the next assay, the target named is T9, KRas^G12D (Homo sapiens, UniProt P01116, G12D).
T9 construct: Biotinylated KRas (corresponding to amino acids 1-169, produced at Accelegan Inc.); biotin (biotinylated); purchased Accelegan Inc
Put plainly: KRas binding assay (TR-FRET tracer displacement), KRas G12D.

T4 sequence (P01116 1-169 isoform P01116-2 G12S): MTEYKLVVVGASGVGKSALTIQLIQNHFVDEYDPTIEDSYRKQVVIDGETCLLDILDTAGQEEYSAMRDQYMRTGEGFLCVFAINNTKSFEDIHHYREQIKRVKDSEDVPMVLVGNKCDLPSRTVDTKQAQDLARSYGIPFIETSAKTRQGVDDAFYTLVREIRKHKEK
T8 sequence (P01116 1-169 isoform P01116-2 G12A): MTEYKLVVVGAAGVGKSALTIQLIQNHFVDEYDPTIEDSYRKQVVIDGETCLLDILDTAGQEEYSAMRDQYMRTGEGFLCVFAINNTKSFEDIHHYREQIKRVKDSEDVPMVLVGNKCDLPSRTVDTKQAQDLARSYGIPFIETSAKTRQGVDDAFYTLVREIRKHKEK
T2 sequence (P01116 1-169 isoform P01116-2 G13D): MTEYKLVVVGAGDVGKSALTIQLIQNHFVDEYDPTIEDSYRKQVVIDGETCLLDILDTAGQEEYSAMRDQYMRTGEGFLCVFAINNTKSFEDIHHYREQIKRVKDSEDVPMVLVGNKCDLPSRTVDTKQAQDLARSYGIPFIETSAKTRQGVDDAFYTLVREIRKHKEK
T7 sequence (P01116 1-169 isoform P01116-2 G12R): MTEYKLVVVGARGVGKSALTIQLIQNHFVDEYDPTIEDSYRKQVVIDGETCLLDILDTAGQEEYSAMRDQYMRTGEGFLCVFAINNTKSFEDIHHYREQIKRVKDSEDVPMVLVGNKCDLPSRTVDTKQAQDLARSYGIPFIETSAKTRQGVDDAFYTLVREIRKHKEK
T6 sequence (P01116 1-169 isoform P01116-2 G12C): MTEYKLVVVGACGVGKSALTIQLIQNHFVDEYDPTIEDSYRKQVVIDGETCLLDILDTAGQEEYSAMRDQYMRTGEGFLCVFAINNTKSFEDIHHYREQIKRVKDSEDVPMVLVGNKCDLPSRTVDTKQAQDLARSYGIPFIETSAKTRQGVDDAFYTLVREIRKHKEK
T1 sequence (P01116 1-169 isoform P01116-2 G12V): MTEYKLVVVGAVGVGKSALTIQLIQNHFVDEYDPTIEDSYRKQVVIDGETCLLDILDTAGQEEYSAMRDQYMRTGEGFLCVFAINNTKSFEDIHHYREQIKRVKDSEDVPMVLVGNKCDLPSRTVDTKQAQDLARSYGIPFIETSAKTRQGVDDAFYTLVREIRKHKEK
T9 sequence (P01116 1-169 isoform P01116-2 G12D): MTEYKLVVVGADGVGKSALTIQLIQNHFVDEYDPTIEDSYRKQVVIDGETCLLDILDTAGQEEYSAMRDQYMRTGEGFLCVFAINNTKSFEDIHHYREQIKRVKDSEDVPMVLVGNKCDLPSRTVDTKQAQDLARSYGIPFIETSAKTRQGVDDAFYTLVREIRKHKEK
T5 sequence (P01116 1-169 isoform P01116-2): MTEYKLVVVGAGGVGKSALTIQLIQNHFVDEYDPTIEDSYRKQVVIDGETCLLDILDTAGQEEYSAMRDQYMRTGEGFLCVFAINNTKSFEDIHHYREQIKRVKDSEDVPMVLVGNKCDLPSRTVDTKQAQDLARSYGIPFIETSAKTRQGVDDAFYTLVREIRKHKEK
T3 sequence (P01116 1-169 isoform P01116-2 Q61H): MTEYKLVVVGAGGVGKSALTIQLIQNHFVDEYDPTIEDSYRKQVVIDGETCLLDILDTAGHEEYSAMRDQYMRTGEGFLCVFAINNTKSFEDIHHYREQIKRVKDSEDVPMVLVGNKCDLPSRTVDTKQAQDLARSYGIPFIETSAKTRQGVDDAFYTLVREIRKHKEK

Take `Cc1cc2[nH]ncc2c(-c2ncc3c(N4CCCC5(CNC(=O)N5)C4)nc(OCC45CCCN4CCC5)nc3c2F)c1C` (stereo not shown) [Example 729, 7-(7-(5,6-dimethyl-1H-indazol-4-yl)-8-fluoro-2-((hexahydro-1H-pyrrolizin-7a-yl)methoxy)pyrido[4,3-d]pyrimidin-4-yl)-1,3,7-triazaspiro[4.5]decan-2-one]: the IC50 was 36 nM at KRas^G12V; above 10000 nM in assay [1]; 46 nM on KRas^G13D; 53 nM at KRas^Q61H; 40 nM at KRas^G12S; 45 nM on KRas^WT. Besides, the IC50 was 40 nM at KRas^G12C; 61 nM on KRas^G12R; 48 nM at KRas^G12A; above 10000 nM in [2]; 26 nM on KRas^G12D.

As for `Cc1cc2[nH]ncc2c(-c2ncc3c(N4CCCn5nc(C(=O)N(C)C)cc5C4)nc(OCC45CCCN4CCC5)nc3c2F)c1C` [Example 730, 5-(7-(5,6-dimethyl-1H-indazol-4-yl)-8-fluoro-2-((hexahydro-1H-pyrrolizin-7a-yl)methoxy)pyrido[4,3-d]pyrimidin-4-yl)-N,N-dimethyl-5,6,7,8-tetrahydro-4H-pyrazolo[1,5-a][1,4]diazepine-2-carboxamide], the IC50 at KRas^G12V was 75 nM; in assay [1], above 10000 nM; at KRas^G13D, 513 nM; at KRas^Q61H, 444 nM; on KRas^G12S, 113 nM; at KRas^WT it was 343 nM. Also, the IC50 at KRas^G12C was 131 nM; at KRas^G12R, 203 nM; at KRas^G12A it was 251 nM; in assay [2], above 10000 nM; at KRas^G12D it was 35 nM.

For `Cc1cc2[nH]ncc2c(-c2ncc3c(N4CCC[C@]5(C4)NC(=O)NC5=O)nc(OC[C@@]45CCCN4C[C@H](F)C5)nc3c2F)c1C` [Example 731, (5R)-7-(7-(5,6-dimethyl-1H-indazol-4-yl)-8-fluoro-2-(((2R,7aS)-2-fluorohexahydro-1H-pyrrolizin-7a-yl)methoxy)pyrido[4,3-d]pyrimidin-4-yl)-1,3,7-triazaspiro[4.5]decane-2,4-dione], the half-maximal inhibitory concentration (IC50) on KRas^G12V was 8 nM; in assay [1], above 10000 nM; on KRas^G13D, 13 nM; at KRas^Q61H, 13 nM; on KRas^G12S, 12 nM; on KRas^WT, 12 nM. Moreover, the concentration for half-maximal inhibition (IC50) was 11 nM on KRas^G12C; 10 nM at KRas^G12R; 13 nM at KRas^G12A; above 10000 nM in assay [2]; 15 nM on KRas^G12D.

Consider `Cc1cc2[nH]ncc2c(-c2ncc3c(N4CCC[C@]5(C4)NC(=O)NC5=O)nc(OCC4(CN(C)C)CC4)nc3c2F)c1C` [Example 732, (5R)-7-(7-(5,6-dimethyl-1H-indazol-4-yl)-2-((1-((dimethylamino)methyl)cyclopropyl)methoxy)-8-fluoropyrido[4,3-d]pyrimidin-4-yl)-1,3,7-triazaspiro[4.5]decane-2,4-dione], for which the IC50 is 31 nM on KRas^G12V; above 10000 nM in [1]; 60 nM at KRas^G13D; 79 nM on KRas^Q61H; 63 nM at KRas^G12S; 50 nM on KRas^WT. For the same compound, the IC50 on KRas^G12C was 43 nM; at KRas^G12R it was 47 nM; at KRas^G12A it was 61 nM; in [2], above 10000 nM; at KRas^G12D it was 113 nM.

As to `Oc1cc(Cl)c(C2CC2)c(-c2ncc3c(N4C[C@H]5C[C@@H](C4)[C@H](O)C5)nc(OCC45CCCN4CCC5)nc3c2F)c1` [Example 738, (1S,5S,6R)-3-(7-(3-chloro-2-cyclopropyl-5-hydroxyphenyl)-8-fluoro-2-((tetrahydro-1H-pyrrolizin-7a(5H)-yl)methoxy)pyrido[4,3-d]pyrimidin-4-yl)-3-azabicyclo[3.2.1]octan-6-ol], the IC50 at KRas^G12V amounted to 3 nM; in assay [1], 1510 nM; on KRas^G13D, 10 nM; at KRas^Q61H, 9 nM; at KRas^G12S it was 9 nM; at KRas^WT it was 11 nM. Moreover, the IC50 at KRas^G12C is 9 nM; on KRas^G12R, 2 nM; on KRas^G12A, 11 nM; in assay [2] it was 5960 nM; on KRas^G12D, 17 nM.

The IC50 is the concentration at which inhibition is half-maximal. A higher IC50 goes with lower potency.
